Test results published in patent publication EP0182152B1, “Antitumor antibiotics (LL-E33288 Complex)” (AMERICAN CYANAMID COMPANY, priority 1984, dated 1986).

What was measured:
Acinetobacter sp. = assay: in vitro antibacterial activity, agar dilution MIC; assay type: cell-based
Experimental: (§1) The in vitro antibacterial activity of LL-E33288 components was determined against a spectrum of gram-positive and gram-negative bacteria by a standard agar dilution method. Mueller-Hinton again containing two-fold decreasing concentrations of the antibiotics were poured into petri plates. the agar surfaces were inoculated with 1 to 5 x 10^4 colong forming units of bacteria by means of the steers replicating device.

Citrobacter diversus = assay: in vitro antibacterial activity, agar dilution MIC; assay type: cell-based; settings: Citrobacter diversus K 82-84
Experimental: as §1

Citrobacter freundii = assay: in vitro antibacterial activity, agar dilution MIC; assay type: cell-based; settings: Citrobacter freundii IO 83-13
Experimental: as §1

Enterobacter aerogenes = assay: in vitro antibacterial activity, agar dilution MIC; assay type: cell-based; settings: Enterobacter aerogenes IO 83-44
Experimental: as §1

Enterobacter cloacae = assay: in vitro antibacterial activity, agar dilution MIC; assay type: cell-based; settings: Enterobacter cloacae CMC 84-4
Experimental: as §1

Escherichia coli = assay: in vitro antibacterial activity, agar dilution MIC; assay type: cell-based
Experimental: as §1

Klebsiella pneumoniae = assay: in vitro antibacterial activity, agar dilution MIC; assay type: cell-based
Experimental: as §1

Morganella morganii = assay: in vitro antibacterial activity, agar dilution MIC; assay type: cell-based; settings: Morganella morganii IO 83-18
Experimental: as §1

Providencia stuartii = assay: in vitro antibacterial activity, agar dilution MIC; assay type: cell-based; settings: Providencia stuartii CMC 83-82
Experimental: as §1

Serratia marcescens = assay: in vitro antibacterial activity, agar dilution MIC; assay type: cell-based
Experimental: as §1

[1] = tested on: M5076 reticular cell Sarcoma; assay: M5076 Sarcoma test; assay type: in vivo, BDF1 mice; settings: Table VIII, i.p. days 1, 5, 9, 13 and 17, control 28.5 days
Experimental: The M5076 reticular cell Sarcoma is propagated as subcutaneous implants in C57B2/6 female mice. In the assays for antitumor activity, BDF1 mice of either sex were inoculated intraperitoneally with 0.5 ml of a 10% tumor brei. LL-E33288 antibiotics were tested in the M5076 system as a complex (Bromo-complex) of all components. Test compounds were administered intraperitoneally on days 1, 5, 9, 13 and 17 relative to tumor inoculation on day zero. The median survival time in days was determined for each drug dose used on day 60 and the ratio of survival time for treated (T)/control (C) animals were calculated. The results of this test appear in Table VIII compared to the results obtained with Cisplatin. If T/C X 100 (%) is 125 or over, the tested compound is considered to have significant anti-tumor activity.

SMILES: CCN[C@H]1CO[C@@H](O[C@H]2[C@H](O[C@H]3C#CC=CC#C[C@@]4(O)CC(=O)C(NC(=O)OC)=C3/C4=C\CSSSC)O[C@H](C)[C@@H](NO[C@H]3C[C@H](O)[C@H](SC(=O)c4c(C)c(I)c(O[C@@H]5O[C@@H](C)[C@H](O)[C@@H](OC)[C@H]5O)c(OC)c4OC)[C@@H](C)O3)[C@@H]2O)C[C@@H]1OC (stereo in doubt) [LL-E33288γ1-I]
- Minimal Inhibitory Concentration (Acinetobacter sp.; Acinetobacter sp. CMC 83-89): 0.12 µg/mL
- Minimal Inhibitory Concentration (Acinetobacter sp.; Acinetobacter sp. IO 83-49): 0.06 µg/mL
- Minimal Inhibitory Concentration (Citrobacter diversus): 0.25 µg/mL
- Minimal Inhibitory Concentration (Citrobacter freundii): 0.12 µg/mL
- Minimal Inhibitory Concentration (Enterobacter aerogenes): 0.50 µg/mL
- Minimal Inhibitory Concentration (Enterobacter cloacae): 0.50 µg/mL
- Minimal Inhibitory Concentration (Escherichia coli; Escherichia coli ATCC 25922): 0.25 µg/mL
- Minimal Inhibitory Concentration (Escherichia coli; Escherichia coli CMC 84-11, about 18 hours, 35°C): 0.25 µg/mL
- Minimal Inhibitory Concentration (Escherichia coli; Escherichia coli No. 311-(MP)): 0.25 µg/mL
- Minimal Inhibitory Concentration (Klebsiella pneumoniae; Klebsiella pneumoniae AD (MP)): 0.25 µg/mL
- Minimal Inhibitory Concentration (Klebsiella pneumoniae; Klebsiella pneumoniae CMC 84-5): 0.25 µg/mL
- Minimal Inhibitory Concentration (Morganella morganii): 0.25 µg/mL
- Minimal Inhibitory Concentration (Providencia stuartii): 0.25 µg/mL
- Minimal Inhibitory Concentration (Serratia marcescens; Serratia marcescens CMC 83-27): 0.25 µg/mL
- Minimal Inhibitory Concentration (Serratia marcescens; Serratia marcescens F35 (MP)): 0.12 µg/mL

SMILES: N.N.[Cl][Pt][Cl] [Cisplatin, reference compound]
- Median Survival ([1]; dose 0.25 mg/kg): 45 days
- T/C x 100 ([1]; dose 0.25 mg/kg): 158%
- Median Survival ([1]; dose 0.5 mg/kg): 44.5 days
- T/C x 100 ([1]; dose 0.5 mg/kg): 156%
- Median Survival ([1]; dose 1 mg/kg): 30 days
- T/C x 100 ([1]; dose 1 mg/kg): 105%
